Results published in patent US11064704B2, “Natural product formulations with improved residual insect repellent/deterrent activity” (University of Mississippi, priority 2016, dated 2021).

Experiments:
Aedes aegypti females = assay: in vitro A&K (Ali and Khan) repellent bioassay; format: in vivo; settings: for residual repellent activity: time post treatment within range of MED: 11.7 μg/cm^2; for residual repellent activity: time post treatment up to which active / after which MED limit crossed: 23.4 μg/cm^2
Excerpt: The A&K (Ali and Khan) bioassay system is based on the concept that the mosquitoes are attracted to warm temperatures, and this system uses warm temperature to serve as stimulus for landing and feeding. The details of the A&K bioassay systems are given in Ali et al. (2017).
In summary, this in vitro system consisted of a 30×30×30 cm collapsible aluminum cage (Model 1450B, BioQuip Products, 2321 Gladwick Street, Rancho Dominguez, Calif. 90220, USA) with metal screens. On one panel of the cage, metal screen was replaced with a clear acrylic transparent sheet. […] The blood box had three sides covered with acrylic sheet while the front side was open to insert the feeding device. […] The sliding door served to contain the females inside the cage when the feeding device was pulled out for loading the treatment. This door was slid open when the feeding device was pushed in during the bioassay to expose the females to the treatment.
The feeding device had one 3×4 cm rectangular reservoir that contained the feeding solution. The feeding device was connected to the water circulator. The reservoir of the feeding device with feeding solution was covered with a chemical treated collagen sheet. To observe the landing and feeding of female mosquitoes, feeding solution in the reservoir was heated to match the human body temperature using a water circulator which was set at 37° C. The feeding solution had 3-4° C. higher temperature than the solid platform, and this increased temperature of the feeding solution became a better source of attraction and preference for the mosquitoes than the other parts of the feeding device.
The rectangular reservoir of the feeding device was filled with the CPDA 1+ATP solution having a few drops of green fluorescent traceable water-soluble dye to serve as a feeding source. A test was started when the 3×4 cm marked areas of collagen were treated with the desired chemical in a volume of 50 μL/[…]. The treated collagen sheet was then secured on the reservoir using a thin layer of high vacuum grease (Dow Corning Corporation, Midland, Mich. 48686). The feeding device was then pushed into the blood box and the sliding door was opened to expose females to the treatment.
Stock solutions were made in ethanol. All the dilutions were made in EtOH and applied in a volume of 50 μL covering […] of the collagen sheet. Minimum effective dosage (MED) values in this in vitro bioassay were determined using a method described by Katritzky et al. (2010).
The cage contained 200±10, 8-18 day old female mosquitoes. The number of mosquitoes landing and biting were recorded visually for 1 minute. Three or four cages were used at a time, and one treatment was evaluated in a single cage. The minimum dose at which 2 or less mosquitoes (i.e. less than or equal to 1% of 200 females in the cage) started feeding in 1 minute was the minimum effective dose (“MED”). Continuous exposure of the mosquitoes in the cage can result in reduced landing and biting, therefore, 3-4 cages were used and only one replication was completed for each chemical in a single cage. To ensure accuracy of the treatment, rectangular areas of (3×4 cm (12 cm^2) or 7.5×4 cm (30 cm^2) were marked on the collagen that matched the measurement of the rectangular liquid reservoirs. Treatments were applied in a volume of 50 μL (12 cm^2 area) or 107 μL (30 cm^2 area). Treated collagen sheets were secured on a feeding reservoir containing CPDA-1+ATP solution using a thin layer of grease (Dow Corning Corp, Midland, Mich.). The feeding device was pushed inside the blood box and the sliding door was […] to expose the females to the treatment.
To ensure the normal activity (≥10% landing), control treatment was repeated after every 5 replications, and the bioassay was stopped if the response was less than the control. The data is presented as MED values with the mean percentage biting (±SEM) in parenthesis. […]

mosquitoes = assay: in vivo direct skin application bioassay
Protocol: Direct skin application bioassays were conducted by using a powder-free latex glove (Diamond Grip, Microflex Corporation, Reno, Nev.). An opening of 3×4 cm was cut through the glove to fit on dorsal surface of the hand (FIG. 1). After wearing the glove, a wristband was used to avoid the biting on the hand near the border of the glove. Approximately, 500 (±5%), consisting primarily of females were transferred to a test cage (45×45×45 cm) using an aspirator. A series of dosages were tested to determine MED for repellency as well as residual activity against mosquitoes. A single test consisted of covering the hand of a volunteer with a powder-free latex glove and treating 12 cm^2 surface area, cut through the glove, on dorsal surface of the hand. Marked skin surface area was treated with the test compound in 50 μl of total volume. Because of constrain of man power, only one volunteer who was provided with a written informed consent participated in this study. A protocol approved by the University of Mississippi Human Use Institutional Review Board (IRB protocol #15-070) was followed.
The test started when the hand treated (3×4 cm area cut through the glove on the dorsal surface) with a test compound was inserted into the mosquito cage. […] Any treatment with […] females biting during 1 min test period was considered as “passed” whereas a treatment with ≥5 bites out of 500 mosquitoes was considered as “failed”. In case of passing the next lower and in case of failure next higher serial dose was tested to reach MED. Additionally, data on the residual repellent activity was recorded by exposing the treatments to the females after every 30 minutes until the treatment failed. Carrot essential oil, carotol and DEET and the mixtures were tested.
Direct skin application bioassays were conducted by using a powder-free latex glove (Diamond Grip™, Microflex Corporation, Reno, Nev.). An opening of 3×4 cm was cut through the glove to fit on the dorsal surface of the hand. After donning the glove, a wristband was used to avoid biting on the hand near the border of the glove. Approximately 500 (±5%) mosquitoes, consisting primarily of females, were transferred to a test cage (45×45×45 cm) using an aspirator. A series of dosages were tested to determine MED for repellency as well as residual activity against mosquitoes.
A single test consisted of covering the hand of a volunteer with a powder-free latex glove and treating a 12 cm^2 surface area, cut through the glove, on the dorsal surface of the hand. Marked skin surface area was treated with the test compound in 50 μl of total volume. Because of constraints of man power, only one volunteer who was provided with a written informed consent participated in this study. A protocol approved by the University of Mississippi Human Use Institutional Review Board (IRB Protocol #15-070) was followed.
The test started when the hand treated (3×4 cm area cut through the glove on the dorsal surface) with a test compound was inserted into the mosquito cage. […] Any treatment with ≤5 females biting during the 1 min test period was considered as “passed”, whereas a treatment with ≥5 bites out of 500 mosquitoes was considered as “failed”. In case of passing, the next lower, and in case of failure, the next higher, serial dose was tested to reach MED. Additionally, data on the residual repellent activity were recorded by exposing the treatments to the females after every 30 minutes until the treatment failed. Carrot seed essential oil, carotol, geranium and lemon Eucalyptus essential oils, DEET, picaridin and the mixtures were tested.

[1] = 12 cm^2 surface area, Table 7/FIG. 7
[2] = Table 13/FIG. 13, mixtures 6.25+6.25 μg/cm^2 versus individual applications, species not given

Structure (SMILES) | residual repellent activity: time post treatment within range of MED (Aedes aegypti females) | residual repellent activity: time post treatment up to which active / after which MED limit crossed (Aedes aegypti females) [min] | minimum effective dose (MED) (Aedes aegypti females; [1]) [μg/cm^2] | minimum effective dose (MED) (Aedes aegypti females; [2]) [μg/cm^2] | residual activity: time post application at which MED level crossed (mosquitoes; 1% rate of application) [h] | residual activity: time post application at which MED level crossed (mosquitoes; 2% rate of application) [h] | residual repellent activity: time post treatment up to which active (Aedes aegypti females; 46.9 μg/cm^2) [min] | repellent activity (Aedes aegypti females; compared with DEET) | residual activity: time post application at which MED reached (mosquitoes; 8% application rate) [h] | residual activity: time post application at which MED reached/crossed (mosquitoes; 12.5% application rate) [h] | residual activity: time post application at which MED reached (mosquitoes; 25% application rate) [h] | residual activity: time post application at which MED reached (mosquitoes; 50% application rate) [h]
CCN(CC)C(=O)c1cccc(C)c1 [DEET, N,N-diethyl-meta-toluamide, reference compound] | 30 min | 120 | 11.7 | 25 | 1 | 1 |  |  |  |  |  | 
CC1=CC[C@]2(C)CC[C@@H](C(C)C)[C@]2(O)CC1 [carotol] | failed | 60 | 11.7 | 25 |  |  | 120 | comparable to DEET | 1.5 | 1.5 | 2 | 2.5
